Reference: US20160237032A1, “PROCESS TO MANUFACTURE N-[(3S)-1-[4-[(3-FLUOROPHENYL)METHOXY]PHENYL]-5-OXO-PYRROLIDIN-3-YL]ACETAMIDE” (Hoffmann-La Roche Inc., priority 2013, published 2016)

Experiment: thermodynamic stability of polymorphic forms
Format: physicochemical
Conditions: at room temperature

thermodynamic stability of the crystal form: thermodynamically stable form
Structure (SMILES): CC(=O)N[C@H]1CC(=O)N(c2ccc(OCc3cccc(F)c3)cc2)C1 [Polymorph B, N-[(3S)-1-[4-[(3-fluorophenyl)methoxy]phenyl]-5-oxo-pyrrolidin-3-yl]acetamide]
